In PMC3356383, “Efficacious Intermittent Dosing of a Novel JAK2 Inhibitor in Mouse Models of Polycythemia Vera” (PLoS ONE, 2012):
pEC50, pIC50: −log10 of the molar value. Marks after values point to notes of the source that are not given here.

Assays:
thymus cell populations = test: Cell populations in thymus of normal mice; type: in vivo; conditions: 54 mpk
Procedure: (§1) Cells were stained in PBS, 0.5% BSA with antibodies for 15 min on ice. Stained cells were acquired on a 4-laser LSR-II (BD Biosciences) and data analyzed using FlowJo software (Treestar). Dead cells were labeled with the blue fluorescent LIVE/DEAD reactive dye (Invitrogen) and excluded from the analysis.
(§2) Monoclonal antibodies (anti-mouse): CD3, CD4, CD5, CD8, CD11b, CD19, CD21/35, CD23, CD25, CD43, CD44, CD49b, CD69, CD71, CD93, CD117, B220, GR-1, IgD, NK1.1, NKG2A/C/E, NKG2D, Ter119 were purchased from BD Biosciences; CD4, CD8, CD49b, CD62L, TCRβ, TCRγδ from eBioscience; GR-1 from Invitrogen; CD43 from Miltenyi Biotec. Goat anti-mouse IgM-FITC, (μ chain specific) from Jackson Immuno Research.
(§3) JAK2 and its family members JAK1 and JAK3 are known to signal downstream of cytokines that play essential roles in the development of lymphoid cell populations. To examine more thoroughly the effects of JAK2 inhibition on lymphoid cells, we analyzed wild-type (C57BL/6) mice treated with 54 mpk MRLB-11055 for 3 days, 6 days or up to 5 cycles of 3 days (“on”) followed by a 4 day holiday (“off”).
(§4) Supplementary file pone.0037207.s007.doc: Table S5 Effect of MRLB-11055 on Cell Populations in Thymus of Normal Mice. Cell counts measured by Advia. Cycles refer to 3 days of treatment followed by a 4 day holiday. *p<0.05 in Student T test when comparing vehicle 5 cycle with treatment 5 cycle and vehicle 2 cycle with treatment 2 cycle, resp. (DOC) Click here for additional data file.

JAK2 (JH1–JH2) WT = biological target: T1, JAK2 (JH1–JH2) WT (Homo sapiens, UniProt O60674); test: JAK2 enzyme assay, HTRF detection; type: biochemical; conditions: kinase activity, mean, n = 3, read-out: IC50, cell-free JAK2 (JH1–JH2) WT
T1 construct: JAK2, 25 pM enzyme (JH1, JH1–JH2^wt, JH1–JH2^V617F domains)
Procedure: (§5) JAK1, JAK2, JAK3, and TYK2 kinase activity assays were performed as described previously using HTRF detection technology and the peptide substrate amino hexanoyl biotin-EQEDEPEGDYFEWLE-NH2. Each reaction was incubated between 60 and 80 min at room temperature. Final conditions were as follows: JAK1, 400 pM enzyme, Hepes pH 7.5, 10 mM MgCl2, 0.01% Brij-35, 1 mM EGTA, 0.1 mg/ml BSA), 2 mM DTT, 2 µM peptide substrate, 25 µM MgATP, 5% DMSO and the desired concentration of subject compound; JAK2, 25 pM enzyme (JH1, JH1–JH2^wt, JH1–JH2^V617F domains), 2 µM peptide substrate, 15 µM MgATP, 5 mM MgCl2, 100 mM NaCl, 2 mM DTT, 0.1 mg/ml BSA, 50 mM Tris (pH 7.4), 5% DMSO and the desired concentration of subject compound; JAK3, 250 pM enzyme, 50 mM Hepes pH 7.5, 10 mM MgCl2, 0.01% Brij-35, 1 mM EGTA, 0.1 mg/ml BSA), 2 mM DTT, 2.0 µM peptide substrate, 25 µM MgATP, 5% DMSO, and the desired concentration of subject compound; TYK2, 125 pM enzyme, 50 mM Hepes pH 7.5, 10 mM MgCl2, 0.01% Brij-35, 1 mM EGTA, 0.1 mg/ml BSA, 2 mM DTT, 2.0 µM peptide substrate, 15 µM MgATP, 5% DMSO and the desired concentration of subject compound.

JAK2 (JH1) WT = biological target: T2, JAK2 (JH1) WT (Homo sapiens, UniProt O60674); test: JAK2 enzyme assay, HTRF detection; type: biochemical
T2 construct: JAK2, 25 pM enzyme (JH1, JH1–JH2^wt, JH1–JH2^V617F domains)
Procedure: as §5

JAK2 (JH1–JH2) V617F = biological target: T3, JAK2 (JH1–JH2) V617F (Homo sapiens, UniProt O60674, V617F); test: JAK2 enzyme assay, HTRF detection; type: biochemical; conditions: kinase activity, mean, n = 3, read-out: IC50, cell-free JAK2 (JH1–JH2) V617F
T3 construct: JAK2, 25 pM enzyme (JH1, JH1–JH2^wt, JH1–JH2^V617F domains)
Procedure: as §5

BaF3 (JAK2 V617F) cells = test: Cell apoptosis, ApoDirect assay; type: cell-based; conditions: Mus musculus, 24 hour, ApoDirect measurement of fragmented DNA, read-out: Cell apoptosis, BaF3 (JAK2 V617F) (values shown are EC50)
Procedure: Cell survival was measured by ApoDirect (BD Biosciences) assay as follows. BaF3 cells were grown at 37°C, 5% CO2, and aliquots (2 × 10^6) were treated with inhibitor (various concentration dissolved in DMSO) for 24 hours and then fixed and stained as per manufacturer protocol.

[1] = tested on: bone marrow cell populations; test: Cell populations in bone marrow of normal mice; type: in vivo; conditions: 54 mpk
Procedure: as §1, §2, §3
as §4, with “pone.0037207.s006.doc:” for “pone.0037207.s007.doc:”, “S4” for “S5”, “Bone Marrow” for “Thymus”

[2] = 2 cycles (3 days treatment, 4 day holiday)
[3] = 5 cycles (3 days treatment, 4 day holiday)

T2 sequence (O60674 849-1124 limits assumed): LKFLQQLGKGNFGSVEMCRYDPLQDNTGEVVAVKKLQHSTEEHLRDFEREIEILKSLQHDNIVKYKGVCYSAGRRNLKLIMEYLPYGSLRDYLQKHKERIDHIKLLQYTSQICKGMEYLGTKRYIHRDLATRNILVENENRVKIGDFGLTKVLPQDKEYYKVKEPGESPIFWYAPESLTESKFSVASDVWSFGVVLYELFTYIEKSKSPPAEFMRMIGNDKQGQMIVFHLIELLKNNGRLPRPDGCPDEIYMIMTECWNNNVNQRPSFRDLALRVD
T3 sequence (O60674 532-1132 V617F limits assumed): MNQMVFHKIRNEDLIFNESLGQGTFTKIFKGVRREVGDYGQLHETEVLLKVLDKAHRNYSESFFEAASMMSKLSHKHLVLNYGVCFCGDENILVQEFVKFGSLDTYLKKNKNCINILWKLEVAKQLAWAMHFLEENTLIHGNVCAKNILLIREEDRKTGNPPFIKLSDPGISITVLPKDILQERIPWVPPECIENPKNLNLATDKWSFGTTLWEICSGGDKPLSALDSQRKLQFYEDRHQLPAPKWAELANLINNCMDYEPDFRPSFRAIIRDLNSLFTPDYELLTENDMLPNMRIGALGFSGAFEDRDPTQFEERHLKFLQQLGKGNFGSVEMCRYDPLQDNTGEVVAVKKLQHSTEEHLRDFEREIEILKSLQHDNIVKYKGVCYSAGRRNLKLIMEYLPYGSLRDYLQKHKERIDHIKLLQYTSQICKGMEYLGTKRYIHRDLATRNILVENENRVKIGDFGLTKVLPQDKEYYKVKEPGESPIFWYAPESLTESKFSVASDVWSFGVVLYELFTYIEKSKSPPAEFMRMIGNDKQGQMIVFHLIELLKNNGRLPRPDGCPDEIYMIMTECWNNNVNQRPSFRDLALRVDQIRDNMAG
T1 sequence (O60674 532-1132 limits assumed): as the sequence (O60674 532-1132 V617F limits assumed) above, with F86V counted along it

`NC(=O)c1cnc(N[C@H](C2CC2)C(F)(F)F)c2c1[nH]c1cc(-c3cnc(N)nc3)ccc12` [MRLB-11055] was tested, and the “Thymus CD4+CD8+” value (thymus cell populations; [2]) was 91.3 ± 0.3%, the “Thymus CD4-CD8-” value (thymus cell populations; [2]) was 3.0 ± 0.8% and the “Thymus Cell Count” value (thymus cell populations; [2]) was 75.4 ± 26.5 x 10^6. For the same molecule, the “Thymus Single Positive CD4+” value (thymus cell populations; [2]) was 3.9 ± 0.8* %, the “Thymus Single Positive CD8+” value (thymus cell populations; [2]) was 0.55 ± 0.03* % and the “Thymus CD4+CD8+” value (thymus cell populations; [3]) was 90.7 ± 1.5%. The “Thymus CD4-CD8-” value (thymus cell populations; [3]) was 2.1 ± 0.6%, the “Thymus Cell Count” value (thymus cell populations; [3]) was 130.3 ± 27.1 x 10^6 and the “Thymus Single Positive CD4+” value (thymus cell populations; [3]) was 5.0 ± 1.1%. For the same molecule, the “Thymus Single Positive CD8+” value (thymus cell populations; [3]) was 1.4 ± 0.2* %, the “Thymus CD4+CD8+” value (thymus cell populations; 3 days) was 85.6 ± 2.4* % and the “Thymus CD4-CD8-” value (thymus cell populations; 3 days) was 3.5 ± 0.6%. For the same molecule, the “Thymus Cell Count” value (thymus cell populations; 3 days) was 37.3 ± 13.4* x 10^6, the “Thymus Single Positive CD4+” value (thymus cell populations; 3 days) was 7.1 ± 1.3% and the “Thymus Single Positive CD8+” value (thymus cell populations; 3 days) was 2.7 ± 0.8%. The “Thymus CD4+CD8+” value (thymus cell populations; 6 days) was 87.9 ± 5.0%, the “Thymus CD4-CD8-” value (thymus cell populations; 6 days) was 2.4 ± 0.9% and the “Thymus Cell Count” value (thymus cell populations; 6 days) was 37.3 ± 12.1* x 10^6. The “Thymus Single Positive CD4+” value (thymus cell populations; 6 days) was 5.8 ± 2.7%, the “Thymus Single Positive CD8+” value (thymus cell populations; 6 days) was 2.7 ± 1.1% and the pIC50 (JAK2 (JH1–JH2) WT) was 9.11. The “Manner of inhibition of the JH1 kinase domain” value (JAK2 (JH1) WT; data not shown) was “ATP-competitive”, the pIC50 (JAK2 (JH1) WT; kinase activity, HTRF assay, mean, n = 3, read-out: IC50, cell-free JAK2 (JH1) WT) was 10.10 and the pIC50 (JAK2 (JH1–JH2) V617F) was 9.46. For the same molecule, the pEC50 (BaF3 (JAK2 V617F) cells) was 6.87, the “B-Cells (CD19+B220+) Immature AA4.1+ IgM+” value [1, 2] was 0.70 ± 0.04* x 10^6 and the “B-Cells (CD19+B220+) Mature AA4.1- IgM+” value [1, 2] was 0.54 ± 0.12 x 10^6. The “B-Cells (CD19+B220+) Pro/pre AA4.1+ IgM-” value [1, 2] was 2.78 ± 0.92 x 10^6, the “B-Cells (CD19+B220+) Total” value [1, 2] was 4.05 ± 0.94* x 10^6 and the “Erythroid Progenitors” value [1, 2] was 8.3 ± 0.9 x 10^6. The “Mature Erythrocytes” value [1, 2] was 13.5 ± 0.7 x 10^6, the “Myeloid GR-1+ CD11b+” value [1, 2] was 8.33 ± 0.85* x 10^6 and the “Nucleated Cells” value [1, 2] was 25.0 ± 4.0 x 10^6. For the same molecule, the “B-Cells (CD19+B220+) Immature AA4.1+ IgM+” value [1, 3] was 0.15 ± 0.05* x 10^6, the “B-Cells (CD19+B220+) Mature AA4.1- IgM+” value [1, 3] was 0.38 ± 0.17* x 10^6 and the “B-Cells (CD19+B220+) Pro/pre AA4.1+ IgM-” value [1, 3] was 1.22 ± 0.74 x 10^6. The “B-Cells (CD19+B220+) Total” value [1, 3] was 1.76 ± 0.87* x 10^6, the “Erythroid Progenitors” value [1, 3] was 5.9 ± 1.9 x 10^6 and the “Mature Erythrocytes” value [1, 3] was 10.3 ± 3.2 x 10^6. For the same molecule, the “Myeloid GR-1+ CD11b+” value [1, 3] was 7.83 ± 3.46 x 10^6, the “Nucleated Cells” value [1, 3] was 19.6 ± 7.2 x 10^6 and the “B-Cells (CD19+B220+) Immature AA4.1+ IgM+” value ([1]; 3 days) was 0.22 ± 0.09* x 10^6. The “B-Cells (CD19+B220+) Mature AA4.1- IgM+” value ([1]; 3 days) was 0.32 ± 0.17* x 10^6, the “B-Cells (CD19+B220+) Pro/pre AA4.1+ IgM-” value ([1]; 3 days) was 0.24 ± 0.10* x 10^6 and the “B-Cells (CD19+B220+) Total” value ([1]; 3 days) was 0.78 ± 0.35* x 10^6. For the same molecule, the “Erythroid Progenitors” value ([1]; 3 days) was 0.5 ± 0.3* x 10^6, the “Mature Erythrocytes” value ([1]; 3 days) was 25.0 ± 5.5* x 10^6 and the “Myeloid GR-1+ CD11b+” value ([1]; 3 days) was 2.07 ± 0.55* x 10^6. For the same molecule, the “Nucleated Cells” value ([1]; 3 days) was 4.7 ± 1.6* x 10^6, the “B-Cells (CD19+B220+) Immature AA4.1+ IgM+” value ([1]; 6 days) was 0.11 ± 0.03* x 10^6 and the “B-Cells (CD19+B220+) Mature AA4.1- IgM+” value ([1]; 6 days) was 0.59 ± 0.52 x 10^6. For the same molecule, the “B-Cells (CD19+B220+) Pro/pre AA4.1+ IgM-” value ([1]; 6 days) was 0.08 ± 0.03* x 10^6, the “B-Cells (CD19+B220+) Total” value ([1]; 6 days) was 0.79 ± 0.54* x 10^6 and the “Erythroid Progenitors” value ([1]; 6 days) was 1.4 ± 0.8* x 10^6. The “Mature Erythrocytes” value ([1]; 6 days) was 18.7 ± 2.5* x 10^6, the “Myeloid GR-1+ CD11b+” value ([1]; 6 days) was 1.90 ± 0.68* x 10^6 and the “Nucleated Cells” value ([1]; 6 days) was 5.4 ± 2.2* x 10^6.
